# Literature values, collected in patent publication US20070015686A1, “Dietary supplement for enhancing skeletal muscle mass, decreasing muscle protein degradation, downregulation of muscle catabolism pathways, and decreasing catabolism of muscle cells” (priority 2005, published 2007).
# Experiments:
# [1] = ingestion of a concomitant carbohydrate
# [2] = biological target: T1, chymotrypsin-like activity of the proteasome complex (Homo sapiens, UniProt P28074); settings: in vitro and in vivo; concentrations found in the serum of green tea drinkers
# T1 sequence (P28074 60-263): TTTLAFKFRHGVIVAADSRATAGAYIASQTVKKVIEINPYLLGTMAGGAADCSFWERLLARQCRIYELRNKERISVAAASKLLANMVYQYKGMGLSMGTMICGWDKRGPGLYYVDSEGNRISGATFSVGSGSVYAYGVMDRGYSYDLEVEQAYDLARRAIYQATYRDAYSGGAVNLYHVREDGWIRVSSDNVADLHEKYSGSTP
# [3] = laboratory tests; greater than vitamin C and vitamin E
# NF-κβ = settings: following administration, during inflammation and infection
structure (smiles),measurement,setting,value
"CN(CC(=O)O)C(=N)N [Creatine, N-methyl-N-guanyl Glycine]","Creatine retention, increased efficiency",[1],up to 60%
"O=C(O[C@@H]1Cc2c(O)cc(O)cc2O[C@@H]1c1ccc(O)c(O)c1)c1cc(O)c(O)c(O)c1 [ECG, epicatechin gallate]",inhibition of the chymotrypsin-like activity of the proteasome complex,[2],potent specific inhibitors
"O=C(O[C@@H]1Cc2c(O)cc(O)cc2O[C@@H]1c1cc(O)c(O)c(O)c1)c1cc(O)c(O)c(O)c1 [EGCG, epigallocatechin gallate]",antioxidant activity,[3],potent antioxidant activity
same,inhibition of the chymotrypsin-like activity of the proteasome complex,[2],potent specific inhibitors
CC1=C(/C=C/C(C)=C/C=C/C(C)=C/C=C/C=C(C)/C=C/C=C(C)/C=C/C2=C(C)C(=O)[C@@H](O)CC2(C)C)C(C)(C)C[C@H](O)C1=O [astaxanthin],NF-κβ activation / nuclear translocation,NF-κβ,decreased NF-κβ activation
CC(C)=C[C@H]1C[C@](O)([C@H]2CC[C@]3(C)[C@H]2CCC2[C@@]4(C)CC[C@H](O[C@@H]5OC[C@@H](O)[C@H](O[C@@H]6O[C@H](CO)[C@@H](O)[C@H](O)[C@H]6O)[C@@H]5O[C@H]5O[C@H](C)[C@@H](O)[C@H](O)[C@@H]5O)C(C)(C)C4CC[C@]23C)[C@H](O)O1 (stereo partly shown) [phanoside],insulin-releasing activity,pancreatic β-cells,potent insulin-releasing activity
O=C(OC[C@H]1O[C@@H](OC(=O)c2cc(O)c(O)c(OC(=O)c3cc(O)c(O)c(O)c3)c2)[C@H](OC(=O)c2cc(O)c(O)c(OC(=O)c3cc(O)c(O)c(O)c3)c2)[C@@H](OC(=O)c2cc(O)c(O)c(OC(=O)c3cc(O)c(O)c(O)c3)c2)[C@@H]1OC(=O)c1cc(O)c(O)c(OC(=O)c2cc(O)c(O)c(O)c2)c1)c1cc(O)c(O)c(OC(=O)c2cc(O)c(O)c(O)c2)c1 [tannic acid],inhibition of the chymotrypsin-like activity of the proteasome complex,[2],potent specific inhibitors
